Two compounds from patent US20210321613A1, “Process for Preparation of Thiocyclam Base and Salt” (ARYSTA L[…], priority 2018, published 2021) can be followed below.

Holding throughout (assay type): in vivo
Data set [1] deals with Coding moth, Cydia pomonella. From the text: Coding moth, Cydia pomonella—onate
larvae Bioassay by diet incorporation; Mortality assessment 2 days after treatment a.i. refers to active ingredient
(§1) LC stands for “Lethal Concentration”. LC values refer to the concentration of a chemical required to kill a certain proportion of a population of pests. The concentration of the chemical that kills 50 percent of the pests during the observation period is the LC50 value and a concentration that kills 90 percent of a population is LC90, LD stands for “Lethal Dose”. LD50 is the amount of an ingested substance that kills 50 percent of a test sample and […] is the lethal dose that kills 90 percent of the test sample. […] In example 1, approximately 4 times less thiocyclam hydrochloride was ingested by the moths at LC50 compared to cartap and approximately 9 times less at LC90 compared to cartap. […] In example 7, all three insecticides performed similarly to eliminate the aphids on radish plants. […] The use of the thiocyclam hydrochloride composition embodiments is in no way restricted to these genera, but also extends in the same manner to other insects and other crops.

Data set [2] relates to Soybean looper, Chrysodeixis includens. The experiment in a line: Soybean looper bioassay by diet surface incorporation, mortality. The note with it: for LC50: Chrysodeixis includens, 72 h, 3rd larval stage, diet surface incorporation, mortality 3 days after treatment (D + 3), read-out: LC50 (μg of a.i/ml of diet).
Source text: Soybean looper, Chrysodeixis includens—3rd larval stage
Bioassay by diet surface incorporation Mortality assessment 3 days after treatment a.i. refers to active ingredient
as §1

For another data set, the system named is Aphids, Myzus persicae. In words: Aphid larvae on radish, boom sprayer application (IRAC n°019 adapted), mortality. The note with it: for LD50 (g a.iJha) / LD90 (g al./ha): mortality 3 days after application (D + 3); for LD50 (g al./ha) / LD90 (g alJha): mortality 4 days after application (D + 4).
Source text: Aphids, Myzus persicae—larvae
Study based on IRAC n°019 methods, application method adapted Plant: radish Application on petri dish with larvae with a boom sprayer apparatus Assessment of mortality 3 and 4 days after application a.i. refers to active ingredient
as §1

For data set [3], the system named is White flies, Trialeurodes vaporarium. The experiment in a line: White fly larvae on bean, boom sprayer application (IRAC n°015 adapted), mortality. The settings on record: for LD50 (g al/ha) / LD90 (g a.i/ha): mortality 9 days after application (D + 9); for LD50 (g a.i./ha) / LD90 (g a.i./ha): mortality 14 days after application (D + 14).
Source text: White flies, Trialeurodes vaporarium—larvae
Study based on IRAC n°015 methods, stage and application method adapted Plant: bean Application: On the petri dish with larvae with a boom sprayer apparatus Assessment of mortality at 7, 9 and 14 days after application a.i. refers to active ingredient
as §1

In the case of `CN(C)C1CSSSC1.Cl` [Thiocyclam HCl, N,N-dimethyl-1,2,3-trithian-5-ylamine hydrochloride], the “times less ingested by the moths at LC50 compared to cartap” value in data set [1] (compared to cartap, LC50) is recorded as “approximately 4 times”. Moreover, the “times less at LC90 compared to cartap” value in data set [1] (compared to cartap, LC90) is listed as “approximately 9 times”. For the same compound, the “LC50 and LC90 compared to thiocyclam oxalate” value in data set [1] (compared to thiocyclam oxalate) is “significantly lower concentrations”. The LC50 in data set [2] was 8.99 µg/mL. Moreover, the “LC50 achieved with times less than cartap” value in data set [2] (compared to cartap, LC50) was “approximately 6 times”. In addition, the “LC90 compared to the concentration of cartap” value in data set [2] (compared to cartap, LC90) is on record as “more than three times lower”. In addition, the “LC50 achieved with times less than thiocyclam oxalate” value in data set [2] (compared to thiocyclam oxalate, LC50) is “approximately 20 times”. For the same compound, the “LC90 compared to thiocyclam oxalate” value in data set [2] (compared to thiocyclam oxalate, LC90) is “orders of magnitude smaller”. Besides, in the data set with Aphids, Myzus persicae, the “LD50 (g a.iJha)” value is recorded as 12.04 g a.iJha, the “LD90 (g al./ha)” value is given as 30.51 g al./ha, the “LD50 (g al./ha)” value came out at 7.66 g al./ha and the “LD90 (g alJha)” value came out at 27.07 g alJha. Also, in data set [3] (days 7 and 9), the “LD90 compared to cartap” value is reported as “lower application concentration compared to cartap”. In addition, the “LD90 (g ai./ha)” value in data set [3] (larvae, bean, mortality 7 days after application (D + 7)) is on record as 1,899 g ai./ha. In addition, in data set [3] (larvae, bean), the “LD50 (g al/ha)” value came out at 2.23 g al/ha, the “LD90 (g a.i/ha)” value is on record as 4,905 g a.i/ha, the “LD50 (g a.i./ha)” value came out at 0.82 g a.i./ha and the “LD90 (g a.i./ha)” value is on record as 7,910 g a.i./ha.

Consider `CN(C)C(CSC(N)=O)CSC(N)=O` [Cartap, reference compound], for which, in data set [2], the LC50 was determined as 53.1 µg/mL. Also, in the data set on Aphids, Myzus persicae, the “LD50 (g a.iJha)” value is on record as below 18.18 g a.iJha, the “LD90 (g al./ha)” value turned out to be 36.70 g al./ha, the “LD50 (g al./ha)” value is reported as below 18.18 g al./ha and the “LD90 (g alJha)” value is on record as 16 g alJha. In data set [3] (larvae, bean), the “LD50 (g al/ha)” value amounted to 15.6 g al/ha, the “LD90 (g a.i/ha)” value is 4,566.3 g a.i/ha, the “LD50 (g a.i./ha)” value was 10.4 g a.i./ha and the “LD90 (g a.i./ha)” value is 910.4 g a.i./ha.
